Assay results taken from PMC6877352, “Modifying the Siderophore Triacetylfusarinine C for Molecular Imaging of Fungal Infection” (Molecular imaging and biology, 2019).

What was measured:
[1] = system: A. fumigatus mutant strain ΔsidA/ΔftrA; assay: Siderophore utilization growth assay; format: cell-based, Aspergillus fumigatus; conditions: 37 °C; for degree of utilization / growth support by [Fe]siderophore: 0.1-100 μM [Fe]siderophore in AMM; for concentration of [Fe]siderophore at which growth was supported: 48 h incubation
Source text: For siderophore utilization growth assays, A. fumigatus mutant strain ΔsidA/ΔftrA [7], which can grow only in the presence of externally added iron-siderophores or at high iron concentrations, was used. The fungal strain was inoculated in iron-deficient culture as described above.
To investigate the ability or inability of A. fumigatus to take up and utilize [Fe]siderophores as iron source, a growth assay with the A. fumigatus mutant strain ΔsidA/ΔftrA was employed. In a 24-well plate, aliquots of 10^3 conidia of mutant strain were point inoculated on 1 ml of AMM containing 0.1, 1, 10, 50, or 100 μM of [Fe]siderophore and incubated at 37 °C for 48 h. For the control, fungi were grown in iron-limited AMM without adding [Fe]siderophore.

[2] = system: A. fumigatus wildtype (ATCC46645); assay: In vitro uptake assay in A. fumigatus; format: cell-based, Aspergillus fumigatus; conditions: iron-starvation condition, 45 min, normalized to [^68Ga]TAFC uptake from the same experiment, n = 3
Procedure: For in vitro uptake studies, A. fumigatus wildtype (ATCC46645) was used. Fungal strain was cultured at 37 °C in Aspergillus minimal medium (AMM) containing 1 % (m/v) glucose as carbon source, 20 mM glutamine as nitrogen source, salts, and trace elements. Iron-sufficient media were prepared by adding FeSO4 to a final concentration of 30 μM. For iron-deficient conditions, supplementation of iron was omitted. Iron starvation was verified by the detection of extracellular siderophore production which is suppressed by iron supplementation.
Uptake assays were performed in either iron-deficient or iron-sufficient A. fumigatus wildtype cultures. In a 96-well MultiScreen Filter Plates HTS (1 μm glass fiber filter, Merck Millipore, Darmstadt, Germany), 180 μl of A. fumigatus suspended in iron-replete or iron-depleted medium was added. [^68Ga]siderophores (approx. 1 × 10^5 cpm, 80 nM) were incubated with either PBS pH 7.4 (total series) or blocking solution (10 μM [Fe]TAFC) (non-specific series) at RT for 45 min in quadriplicates. The incubation was interrupted by suction of the medium and the plate was washed twice with ice-cold TRIS-buffered saline (10 mM, pH 7.3). The filters were isolated and the remaining activities were measured in the gamma counter. The uptake was calculated as % uptake of total activity added; each assay was repeated three times. To normalize uptake variations between different fungal cultures, the uptake of each [^68Ga]siderophore was expressed as the ratio to [^68Ga]TAFC uptake from the same experiment. The mean values of three different assays were used to quantitatively compare the difference in uptake between the compounds.

Compound | degree of utilization / growth support by [Fe]siderophore ([1]; 48 h) | concentration of [Fe]siderophore at which growth was supported [1] | uptake ratio to [^68Ga]TAFC [2] | further results
CCCC(=O)NC1CCCN([O-])C(=O)C=C(C)CCOC(=O)C(NC(C)=O)CCCN([O-])C(=O)C=C(C)CCOC(=O)C(NC(C)=O)CCCN([O-])C(=O)C=C(C)CCOC1=O.[Fe+3] (stereo not drawn) [[Fe]DABuFC, butanoyl[Fe]DAFC] | Medium degree |  |  | 
CC(=O)NC1CCCN([O-])C(=O)C=C(C)CCOC(=O)C(NC(=O)c2ccccc2)CCCN([O-])C(=O)C=C(C)CCOC(=O)C(NC(C)=O)CCCN([O-])C(=O)C=C(C)CCOC1=O.[Fe+3] (stereo not drawn) [[Fe]DABzFC, benzoyl[Fe]DAFC] | Medium degree |  |  | 
CC1=CC(=O)N([O-])CCCC(N)C(=O)OCCC(C)=CC(=O)N([O-])CCCC(N)C(=O)OCCC(C)=CC(=O)N([O-])CCCC(N)C(=O)OCC1.[Fe+3] (stereo not drawn) [[Fe]FSC, [Fe]fusarinine C, reference compound] |  | 0.1 µM |  | 
tributanoyl[Fe]FSC [[Fe]TBuFC] | Medium degree |  |  | 
CC(=O)NC1CCCN(O)C(=O)C=C(C)CCOC(=O)C(NC(=O)CCC(=O)O)CCCN(O)C(=O)C=C(C)CCOC(=O)C(NC(C)=O)CCCN(O)C(=O)C=C(C)CCOC1=O (stereo not drawn) (68Ga complex, metal not drawn) [DAFC(suc)] |  |  | 0.33 | 
CC(=O)N[C@H]1CCCN(O)C(=[OH+])/C=C(/C)CCOC(=O)[C@@H](NC(C)=O)CCCN(O)C(=[OH+])/C=C(/C)CCOC(=O)[C@@H](NC(C)=O)CCCN(O)C(=[OH+])/C=C(/C)CCOC1=O.[Fe] [[Fe]TAFC, triacetyl[Fe]FSC, reference compound] | Medium degree |  |  | 
CC(=O)NC1CCCN([O-])C(=O)C=C(C)CCOC(=O)C(N)CCCN([O-])C(=O)C=C(C)CCOC(=O)C(N)CCCN([O-])C(=O)C=C(C)CCOC1=O.[Fe+3] (stereo not drawn) [[Fe]MAFC, acetyl[Fe]FSC] |  | 0.1 µM |  | 
CC(=O)NC1CCCN(O)C(=O)C=C(C)CCOC(=O)C(NC(=O)CN)CCCN(O)C(=O)C=C(C)CCOC(=O)C(NC(C)=O)CCCN(O)C(=O)C=C(C)CCOC1=O (stereo not drawn) (68Ga complex, metal not drawn) [DAFC(gly)] |  |  | 0.89 | uptake ratio to [^68Ga]TAFC ([2]; listed as [^68Ga]DAFC(gly)): around 1
CC(=O)NC1CCCN(O)C(=O)C=C(C)CCOC(=O)C(NC(=O)CCC(=O)O)CCCN(O)C(=O)C=C(C)CCOC(=O)C(NC(=O)CCC(=O)O)CCCN(O)C(=O)C=C(C)CCOC1=O (stereo not drawn) (68Ga complex, metal not drawn) [MAFC(suc)2] |  |  | 0.04 | uptake ratio to [^68Ga]TAFC ([2]; listed as [^68Ga]MAFC(suc)2): less than 0.05
CC1=CC(=O)N([O-])CCCC(NC(=O)CN)C(=O)OCCC(C)=CC(=O)N([O-])CCCC(NC(=O)CN)C(=O)OCCC(C)=CC(=O)N([O-])CCCC(NC(=O)CN)C(=O)OCC1.[Fe+3] (stereo not drawn) [[Fe]FSC(gly)3, triglycyl[Fe]FSC] | low degree | 1 µM |  | 
CCC(=O)NC1CCCN([O-])C(=O)C=C(C)CCOC(=O)C(NC(C)=O)CCCN([O-])C(=O)C=C(C)CCOC(=O)C(NC(C)=O)CCCN([O-])C(=O)C=C(C)CCOC1=O.[Fe+3] (stereo not drawn) [[Fe]DAPFC, propanoyl[Fe]DAFC] | Medium degree |  |  | 
CC(=O)NC1CCCN(O)C(=O)C=C(C)CCOC(=O)C(N)CCCN(O)C(=O)C=C(C)CCOC(=O)C(N)CCCN(O)C(=O)C=C(C)CCOC1=O (stereo not drawn) (68Ga complex, metal not drawn) [MAFC] |  |  | 0.26 | 
CC(=O)NC1CCCN(O)C(=O)C=C(C)CCOC(=O)C(NC(=O)c2ccccc2)CCCN(O)C(=O)C=C(C)CCOC(=O)C(NC(C)=O)CCCN(O)C(=O)C=C(C)CCOC1=O (stereo not drawn) (68Ga complex, metal not drawn) [DABzFC] |  |  | 0.53 | 
CC(=O)NC1CCCN([O-])C(=O)C=C(C)CCOC(=O)C(NC(=O)CCC(=O)O)CCCN([O-])C(=O)C=C(C)CCOC(=O)C(NC(C)=O)CCCN([O-])C(=O)C=C(C)CCOC1=O.[Fe+3] (stereo not drawn) [[Fe]DAFC(suc), succinyl[Fe]DAFC] | low degree | 1 µM |  | 
CC(=O)NC1CCCN([O-])C(=O)C=C(C)CCOC(=O)C(NC(=O)CN)CCCN([O-])C(=O)C=C(C)CCOC(=O)C(NC(C)=O)CCCN([O-])C(=O)C=C(C)CCOC1=O.[Fe+3] (stereo not drawn) [[Fe]DAFC(gly), glycyl[Fe]DAFC] | low degree | 1 µM |  | 
CC(=O)NC1CCCN([O-])C(=O)C=C(C)CCOC(=O)C(NC(C)=O)CCCN([O-])C(=O)C=C(C)CCOC(=O)C(N)CCCN([O-])C(=O)C=C(C)CCOC1=O.[Fe+3] (stereo not drawn) [[Fe]DAFC, diacetyl[Fe]FSC] |  | 0.1 µM |  | 
CCC(=O)NC1CCCN(O)C(=O)C=C(C)CCOC(=O)C(NC(C)=O)CCCN(O)C(=O)C=C(C)CCOC(=O)C(NC(C)=O)CCCN(O)C(=O)C=C(C)CCOC1=O (stereo not drawn) (68Ga complex, metal not drawn) [DAPFC] |  |  | 0.99 | uptake ratio to [^68Ga]TAFC ([2]; listed as [^68Ga]DAPFC): around 1
CC1=CC(=O)N(O)CCCC(NC(=O)CN)C(=O)OCCC(C)=CC(=O)N(O)CCCC(NC(=O)CN)C(=O)OCCC(C)=CC(=O)N(O)CCCC(NC(=O)CN)C(=O)OCC1 (stereo not drawn) (68Ga complex, metal not drawn) [FSC(gly)3] |  |  | 0.01 | uptake ratio to [^68Ga]TAFC ([2]; listed as [^68Ga]FSC(gly)3): less than 0.05
CC(=O)NC1CCCN(O)C(=O)C=C(C)CCOC(=O)C(NC(=O)CN)CCCN(O)C(=O)C=C(C)CCOC(=O)C(NC(=O)CN)CCCN(O)C(=O)C=C(C)CCOC1=O (stereo not drawn) (68Ga complex, metal not drawn) [MAFC(gly)2] |  |  | 0.03 | uptake ratio to [^68Ga]TAFC ([2]; listed as [^68Ga]MAFC(gly)2): less than 0.05
CC(=O)NC1CCCN([O-])C(=O)C=C(C)CCOC(=O)C(NC(=O)CCC(=O)O)CCCN([O-])C(=O)C=C(C)CCOC(=O)C(NC(=O)CCC(=O)O)CCCN([O-])C(=O)C=C(C)CCOC1=O.[Fe+3] (stereo not drawn) [[Fe]MAFC(suc)2, disuccinyl[Fe]MAFC] | low degree | 1 µM |  | 
CC1=CC(=O)N([O-])CCCC(NC(=O)CCC(=O)O)C(=O)OCCC(C)=CC(=O)N([O-])CCCC(NC(=O)CCC(=O)O)C(=O)OCCC(C)=CC(=O)N([O-])CCCC(NC(=O)CCC(=O)O)C(=O)OCC1.[Fe+3] (stereo not drawn) [[Fe]FSC(suc)3, trisuccinyl[Fe]FSC] | lowest level of growth |  |  | growth at 50 μM [Fe]siderophore ([1]; 50 μM, 48 h): no growth; growth at 100 μM [Fe]siderophore ([1]; 100 μM, 48 h): sporulation defect
CCC(=O)NC1CCCN([O-])C(=O)C=C(C)CCOC(=O)C(NC(=O)CC)CCCN([O-])C(=O)C=C(C)CCOC(=O)C(NC(=O)CC)CCCN([O-])C(=O)C=C(C)CCOC1=O.[Fe+3] (stereo not drawn) [[Fe]TPFC, tripropanoyl[Fe]FSC] | Medium degree |  |  | 
CC(=O)NC1CCCN([O-])C(=O)C=C(C)CCOC(=O)C(NC(=O)CN)CCCN([O-])C(=O)C=C(C)CCOC(=O)C(NC(=O)CN)CCCN([O-])C(=O)C=C(C)CCOC1=O.[Fe+3] (stereo not drawn) [[Fe]MAFC(gly)2, diglycyl[Fe]MAFC] | low degree | 1 µM |  | 
CC(=O)NC1CCCN(O)C(=O)C=C(C)CCOC(=O)C(NC(C)=O)CCCN(O)C(=O)C=C(C)CCOC(=O)C(N)CCCN(O)C(=O)C=C(C)CCOC1=O (stereo not drawn) (68Ga complex, metal not drawn) [DAFC] |  |  | 0.56 | 
